Laboratory results taken from patent EP0538469A1, “SULFONANILIDE DERIVATIVE AND MEDICINE” (NIPPON SHINYAKU COMPANY, LIMITED, priority 1990, dated 1991).
Structures can show the parent of a compound that is named as a salt. Where two headings read alike, the source gives them in different places.

Experiments:
male rabbits = test: Action to intra urethral pressure and blood pressure, intravenous administration; format: in vivo; details: i.v.; for Selectivity (B/A): BP(ED30%↑) / IUP(ED150%↑); for ED (30%) / ED (150%): Oryctolagus cuniculus, iv, anesthetized male rabbits; for ED (30%): dose increasing blood pressure to an extent of 30%, read-out: BP(B) [BP(ED30%↑)] (converted); for ED (150%): dose increasing intra urethral pressure to an extent of 150%, read-out: IUP(A) [IUP(ED150%↑)]
Protocol: The experiment was conducted using male rabbits of body weight of 1.4-3.1 kg under fasted condition. The animals were fixed at backs under uretrane(1.2g/kg s.c.) anesthesia, abdomen was subjected to a midline incision and bladder was exposed. In order to prevent the urine stored in the bladder on the intra urethral pressure, the urine in the bladder was compulsorily discharged out of the body. After that, a catheter was inserted into both ureters and the urine discharged from kidney was introduced outside.
The intra urethral pressure(IUP) at the urethra tract of about 0.5-1 cm distance from the neck of the bladder was measured using a microtip transducer transducer equipped with a baloon (filled with physiological saline solution) at the top end. Further, polyethylene tube was inserted into femoral artery to measure the blood pressure (BP).
The drug to be tested was injected into the vein of ear every fifteen minutes and the maximum responses of the increasing action of intra urethral pressure tract and of the increasing action of blood pressure were measured at each dose.

mice (ddY-strain, male) = test: Acute toxicity, oral, mice; format: in vivo; details: observed two weeks
Protocol: (§1) Numbers of mice (ddY-strain, male, 6-8 weeks age) and rats (SD strain, male, 6-7 weeks age) in each group were 4 and 6, respectively.
(§2) The drug to be tested was orally administered at the dose of 10 ml/kg using an oral probe to the animals which were fasted since one day before (for 16-18 hours). After giving the drug, the animals were returned to the state where both feed and water were available and the general symptom and the dead cases, if any, were checked for two weeks. The drug was suspended in physiological saline solution containing 0.5% of methylcellulose (0.5% MC) and the suspension was given to the animals by oral route.

[1] = Acute toxicity, oral, rats; format: in vivo; details: rat, in vivo, SD rats, read-out: Rats LD₅₀
Protocol: as §1, §2

rats (SD strain, male) = test: Acute toxicity, oral, rats; format: in vivo; details: observed two weeks
Protocol: as §1, §2

smooth muscle of urethra = test: Contraction of isolated smooth muscle of urethra (Magnus vessel, cumulative concentration/response curves); format: cell-based, rabbits; details: Oryctolagus cuniculus, female rabbit urethra smooth muscle, contraction
Protocol: (§3) The experiment was conducted using female rabbits of 2 to 3.5 kg body weight.
(§4) The animals were killed by draining the blood out under anesthetizing with pentobarbital (30 mg/kg, by intravenous injection) and smooth muscle of urethra and femoral artery were excised. Each of the excised samples was placed in a Magnus vessel filled with a modified Krebs solution (at 37°C; under mixed gas) and both smooth muscle of urethra and femoral artery were suspended with 1 g load.
(§5) The drug to be tested was accumulated to contract the samples whereby the concentration/response curves were obtained wherefrom ED₅₀ (M) and pD₂ were calculated and the selectivity to urethra was determined.

femoral artery = test: Contraction of isolated femoral artery (Magnus vessel, cumulative concentration/response curves); format: cell-based, rabbits; details: Oryctolagus cuniculus, female rabbit femoral artery, contraction
Protocol: as §3, §4, §5

Structure (SMILES)	Selectivity (B/A) (male rabbits; hydrochloride)	ED (30%) (male rabbits)	ED (150%) (male rabbits)	Mice Dead/ Total (mice (ddY-strain, male); 1000 mg/kg)	LD50 at 336 h [1]	Rats Dead/ Total (rats (SD strain, male); 100 mg/kg)	Rats Dead/ Total (rats (SD strain, male); 300 mg/kg)	further results
CS(=O)(=O)Nc1cccc(C(O)CN)c1.Cl (racemic) [(24A), (±)-3'-(2-Amino-1-hydroxyethyl)methanesulfonanilide hydrochloride, reference compound]	1.0	0.036 mg/kg	0.035 mg/kg	0 / 4	> 300 mg/kg	1 / 6	1 / 6	Mice Dead/ Total (mice (ddY-strain, male); 3000 mg/kg): 3 / 4; Rats Dead/ Total (rats (SD strain, male); 30 mg/kg): 0 / 6
CS(=O)(=O)Nc1ccc(F)c(C(O)CN)c1 (racemic) [(49A), (±)-3'-(2-Amino-1-hydorxyethyl)-4'-fluoromethanesulfonanilide hydrochloride]		0.044 mg/kg	0.02 mg/kg	0 / 4	> 500 mg/kg	0 / 6		Selectivity (B/A) (male rabbits): 2.2; Rats Dead/ Total (rats (SD strain, male); 500 mg/kg): 1 / 6
C[C@H](N)[C@H](O)c1cc(NS(C)(=O)=O)ccc1F (racemic) [(59A), (±)-erythro-3'-(2-Amino-1-hydroxypropyl)-4'-fluoromethanesulfonanilide hydrochloride]	1.9	0.083 mg/kg	0.044 mg/kg		> 100 mg/kg	0 / 6		
CNCC(O)c1ccc(F)c(NS(C)(=O)=O)c1.Cl (racemic) [(61A), (±)-2'-Fluoro-5'-(1-hydroxy-2-methylaminoethyl)methanesulfonanilide hydrochloride, reference compound]	1.2	0.037 mg/kg	0.031 mg/kg		> 300 mg/kg		0 / 6	
CS(=O)(=O)Nc1cc(C(O)CN)c(F)cc1F.Cl (racemic) [(63A), (±)-5'-(2-Amino-1-hydroxyethyl)-2',4'-difluoromethanesulfonanilide hydrochloride]	2.9	0.19 mg/kg	0.065 mg/kg		> 300 mg/kg		0 / 6	
CNCC(O)c1cc(NS(C)(=O)=O)ccc1Cl (racemic) [(67A), (±)-4'-Chloro-3'-(1-hydorxy-2-methylaminoethyl)methanesulfonanilide hydrochloride, reference compound]	4.2	2.93 mg/kg	0.7 mg/kg		> 300 mg/kg		0 / 6	
C[C@H](N)[C@H](O)c1ccc(F)c(NS(C)(=O)=O)c1 (racemic) [(70A), (±)-erythro-5'-(2-Amino-1-hydroxypropyl)-2'-fluoromethanesulfonanilide hydrochloride]	3.6	0.1 mg/kg	0.028 mg/kg		> 300 mg/kg		2 / 6	
CNCC(O)c1cc(NS(C)(=O)=O)c(F)cc1F.Cl (racemic) [(71A), (±)-2',4'-Difluoro-5'-(1-hydroxy-2-methylaminoethyl)methanesulfonanilide hydrochloride]	2.1	0.095 mg/kg	0.045 mg/kg		> 300 mg/kg		0 / 6	
CS(=O)(=O)Nc1cc(F)cc(C(O)CN)c1.Cl (racemic) [(73A), (±)-3'-(2-Amino-1-hydroxyethyl)-5'-fluoromethanesulfonanilide hydrochloride]	3.0	0.081 mg/kg	0.027 mg/kg		~200 mg/kg	1 / 6	5 / 6	
CS(=O)(=O)Nc1cccc([C@@H](O)CN)c1.Cl [(24B), (R)-(-)-3'-(2-Amino-1-hydroxyethyl)-methanesulfonanilide hydrochloride, reference compound]	1.0	0.019 mg/kg	0.019 mg/kg	0 / 4	23.2 mg/kg	5 / 6		Rats Dead/ Total (rats (SD strain, male); 5 mg/kg): 0 / 6; Rats Dead/ Total (rats (SD strain, male); 10 mg/kg): 2 / 6; Rats Dead/ Total (rats (SD strain, male); 30 mg/kg): 4 / 6
CS(=O)(=O)Nc1ccc(F)c([C@@H](O)CN)c1.O=C(O)C(O)C(O)C(=O)O [(49K), (R)-(-)-3'-(2-Amino-1-hydroxyethyl)-4'-fluoromethanesulfonanilide L-(+)-tartrate]		0.059 mg/kg	0.009 mg/kg	0 / 4	> 1000 mg/kg	0 / 6	0 / 6	Selectivity (B/A) (male rabbits): 6.6; Mice Dead/ Total (mice (ddY-strain, male); 3000 mg/kg): 0 / 4; Rats Dead/ Total (rats (SD strain, male); 500 mg/kg): 2 / 6; Rats Dead/ Total (rats (SD strain, male); 1000 mg/kg): 1 / 6
CNC[C@H](O)c1ccc(F)c(NS(C)(=O)=O)c1 [(61B)]					36.1 mg/kg	5 / 6	6 / 6	Rats Dead/ Total (rats (SD strain, male); 3 mg/kg): 0 / 6; Rats Dead/ Total (rats (SD strain, male); 10 mg/kg): 2 / 6; Rats Dead/ Total (rats (SD strain, male); 30 mg/kg): 1 / 6
CNC[C@H](O)c1cccc(O)c1 [Phenylephrine]		0.019 mg/kg	0.037 mg/kg					EC50 (smooth muscle of urethra; read-out: ED₅₀ Urethra(A)): 3.75 µM; EC50 (smooth muscle of urethra; read-out: pD₂ Urethra(A)): 3.72 µM; EC50 (femoral artery; read-out: ED₅₀ Femoral Artery(B)): 0.48 µM; EC50 (femoral artery; read-out: pD₂ Femoral Artery(B)): 0.479 µM
